Experimental data: ChEMBL document CHEMBL1201862, “PubChem BioAssay data set” (2004)
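Growth conditions: 96-well plates. Treatment: test compound, 48 hours, 5 concentrations. Analysis: linear interpolation between bracketing concentrations; unreached endpoints set to highest concentration. GI50 marks 50% less growth.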 Activity calls are given as the source filed them. Cut-off read from the data, not from the text of the source: active = GI50 up to about 1.1 µM and inactive = higher.

Experiments:
Experiment in all cases: NCI anticancer screen, dose series, 48 h
[1] = test system: MOLT-4
[2] = test system: A498
[3] = test system: OVCAR-8
[4] = test system: Malme-3M
[5] = test system: SN12C
[6] = test system: NCI-H226
[7] = test system: M14
[8] = test system: TK-10
[9] = test system: CCRF-CEM
[10] = test system: U-251
[11] = test system: OVCAR-3
[12] = test system: NCI-H460
[13] = test system: HOP-62
[14] = test system: LOX IMVI
[15] = test system: HCT-116
[16] = test system: SK-MEL-5
[17] = test system: UACC-257
[18] = test system: SNB-19

Measured: GI50

O=C1c2ccccc2C(=O)c2c(O)c(NCCCNCCO)cc(O)c21
inactive: [1] 2.74 µM | [2] 14.8 µM | [3] 5.79 µM | [4] 17.1 µM | [5] 10.5 µM | [6] 5.61 µM | [7] 16.7 µM | [8] 8.83 µM | [9] 2.47 µM | [10] 6.15 µM | [11] 12.1 µM | [12] 3.33 µM | [13] 2.44 µM

Cc1cc(O)cc2c1O[C@@]1(C)CCC3[C@@]4(C)CC[C@H](O)C(C)(C)C4CC[C@@]3(C)[C@H]1C2 (some centres undefined)
inactive: [1] 1.55 µM | [14] 6.07 µM | [2] 19.6 µM | [3] 8.45 µM | [4] 9.06 µM | [5] 11.6 µM | [15] 4.31 µM | [6] 10.7 µM | [16] 5.61 µM | [7] 11.3 µM | [8] 12.5 µM | [9] 2.55 µM | [10] 2.84 µM | [11] 6.31 µM | [12] 4.41 µM | [17] 12.9 µM

COC(=O)CC1C(=O)OCc2c1cc1n(c2=O)Cc2c-1nc1ccccc1c2OC (centres undefined)
inactive: [1] 3.93 µM | [14] 22.5 µM | [2] > 100 µM | [18] 37 µM | [3] > 100 µM | [4] > 100 µM | [5] 41.4 µM | [15] 13.4 µM | [16] 61.1 µM | [7] 18 µM | [8] > 100 µM | [9] 6 µM | [10] 68.9 µM | [12] 4.16 µM | [13] 11 µM | [17] > 100 µM

CN(C)C(=S)/N=c1\ss/c(=N\C(=S)N(C)C)n1Cc1ccco1
inactive: [1] > 100 µM | [2] > 100 µM | [18] > 100 µM | [3] > 100 µM | [4] > 100 µM | [5] > 100 µM | [15] > 100 µM | [6] > 100 µM | [16] > 100 µM | [7] > 100 µM | [8] > 100 µM | [9] > 100 µM | [10] > 100 µM | [12] > 100 µM | [13] > 100 µM | [17] > 100 µM

CCOC1=C2N=C(C(CC)c3ccc(F)cc3)N=C2C(=O)c2ccccc21 (centres undefined)
inactive: [1] 18 µM | [14] 16.2 µM | [18] 51.4 µM | [3] 30.5 µM | [4] 23.3 µM | [5] 16.3 µM | [15] 23.9 µM | [6] 16 µM | [16] 13.9 µM | [7] 26 µM | [8] 22 µM | [9] 40 µM | [10] 21.7 µM | [11] 32.9 µM | [12] 26.5 µM | [13] 46.3 µM | [17] 20.2 µM

COC(=O)CC(=O)OC
inactive: [1] > 100 µM | [14] > 100 µM | [2] > 100 µM | [18] > 100 µM | [3] > 100 µM | [4] > 100 µM | [5] > 100 µM | [15] > 100 µM | [16] > 100 µM | [7] > 100 µM | [8] > 100 µM | [9] > 100 µM | [10] > 100 µM | [11] > 100 µM | [12] > 100 µM | [13] > 100 µM | [17] > 100 µM

CCCCCC(=O)C(C)C1=Nc2nnc(CCCCCCCc3nnc4n3C(=O)C(C(C)C(=O)CCCCC)=N4)n2C1=O (centres undefined)
inactive: [1] > 100 µM | [14] > 100 µM | [18] > 100 µM | [3] > 100 µM | [4] > 100 µM | [5] > 100 µM | [15] > 100 µM | [6] > 100 µM | [16] > 100 µM | [7] > 100 µM | [8] > 100 µM | [9] > 100 µM | [10] > 100 µM | [11] > 100 µM | [12] > 100 µM | [13] > 100 µM | [17] > 100 µM

O=C1NC2C3CC(OCc4ccccc4)(OCc4ccccc4)C2OC3O1 (centres undefined)
inactive: [1] > 50 µM | [14] > 50 µM | [2] > 50 µM | [4] > 50 µM | [5] > 50 µM | [15] > 50 µM | [6] > 50 µM | [16] > 50 µM | [7] > 50 µM | [9] > 50 µM | [11] > 50 µM | [13] > 50 µM | [17] 24.8 µM

CCCN(CCC)C(=O)c1c([N+](=O)[O-])cc(C(F)(F)F)cc1[N+](=O)[O-]
inactive: [1] 52.6 µM | [14] 35.7 µM | [2] 75.7 µM | [18] 68.4 µM | [3] 39.1 µM | [5] 40.9 µM | [15] 30.5 µM | [6] 19.3 µM | [7] 22.5 µM | [8] > 100 µM | [9] 62.4 µM | [10] 64.9 µM | [11] 10.7 µM | [12] 37 µM | [13] > 100 µM | [17] > 10 µM

CCc1cccc(NC(=O)c2cc(/C=C/c3ccccc3)nc(S)n2)c1
inactive: [1] > 100 µM | [2] > 100 µM | [18] > 100 µM | [3] > 100 µM | [4] > 100 µM | [5] > 100 µM | [15] > 100 µM | [6] > 100 µM | [16] > 100 µM | [7] > 100 µM | [8] > 100 µM | [9] > 100 µM | [10] > 100 µM | [11] > 100 µM | [12] > 100 µM | [13] > 100 µM | [17] > 100 µM

O=C1[C@@H]2C(c3cccc([N+](=O)[O-])c3)=NO[C@@H]2C(=O)N1c1ccc(Cc2ccc(N3C(=O)[C@H]4C(c5cccc([N+](=O)[O-])c5)=NO[C@H]4C3=O)cc2)cc1
inactive: [1] > 100 µM | [14] > 10 µM | [3] > 10 µM | [4] > 100 µM | [5] > 100 µM | [15] > 100 µM | [7] > 100 µM | [8] > 100 µM | [9] > 100 µM | [10] > 10 µM | [11] > 100 µM | [12] > 100 µM | [13] > 100 µM | [17] > 100 µM

Cc1ccc(S(=O)(=O)N/N=C2\CCCCC23CCC(=O)NC3)cc1 (centres undefined)
inactive: [1] > 100 µM | [2] > 100 µM | [18] > 100 µM | [3] > 100 µM | [4] > 100 µM | [5] > 100 µM | [15] > 100 µM | [6] > 100 µM | [16] > 100 µM | [7] > 100 µM | [8] > 100 µM | [9] > 100 µM | [10] > 100 µM | [11] > 100 µM | [12] > 100 µM | [13] > 100 µM | [17] > 100 µM
